Experimental data reported in patent US20250154212A1, “METHOD OF DISRUPTING MEMORY AND LIPOPEPTIDE FOR USE IN SUCH METHOD” (The Research Foundation for The State University of New York, priority 2023, published 2025).
“Also recorded” adds a separate entry of the source. Where no end group is shown, it is not given here. The star is where a group is joined. Myristoyl = CCCCCCCCCCCCCC(=O)*

Test system: spatial long-term memory in PKMζ-null mice
Assay: Active place avoidance, intrahippocampal injection, PKMζ-null mice
Assay type: in vivo, mouse
Settings: 5 nmol in 0.5 μl per hippocampus 1 day after conditioning, tested 2 days post-injection
Procedure: For spatial long-term memory experiments, we adapted the approach used in Garcia-Osta et al. (82). Mice were ˜12-weeks old at surgery. Briefly, to implant the injection cannula hardware, mice were anesthetized by an intraperitoneal (i.p.) injection of a mixture of dexmedetomidine ([…] body weight) and ketamine (28 mg/kg body weight), and mounted in a Kopf stereotaxic frame (Tujunga, CA). The tips of guide cannula (Plastics One, Roanoke, VA; Part Numbers: C235GS-5-2.0) were targeted above the injection target in the dorsal hippocampus (AP-1.94 mm; ML±1.00 mm; DV-0.90 mm). The other injection hardware (Part Numbers: C235DCs-5, 303DC/1; cannula dummy, cannula cap, respectively) was assembled, and antisedan (0.65 mg/kg body weight i.p.) was administered to reverse the sedation at the end of surgery.
Three to four weeks after surgery, the animals received active place avoidance training. […]
Active place avoidance was conducted with a commercial computer-controlled system (Bio-Signal Group, Acton, MA). […] Every 33 ms, the software determined the mouse's position, whether it was in the shock zone, and whether to deliver shock. […]
The tracked animal positions with timestamps were analyzed offline (TrackAnalysis, Bio-Signal Group, Acton, MA) to extract several end-point measures. […]

## O=S(=O)(O)c1cc(O)c2c(S(=O)(=O)O)cc(S(=O)(=O)O)cc2c1 [ζ-stat, 1-naphthol-3,6,8-trisulphonic acid]
  spatial memory retention (time to first enter shock zone), 3-day memory: avoided the shock zone as well as those that had received vehicle; also recorded: not different than vehicle

## myr-N-FVRNSLERRSVRMKRPS-C (Myristoyl-FVRNSLERRSVRMKRPS) [K-ZAP]
  spatial memory retention (time to first enter shock zone), 3-day memory: has no effect on memory retention; also recorded: intact memory retention
